Measured values taken from ChEMBL document CHEMBL1157784, “Antitumor activity and COMPARE analysis of bis-indole derivatives” (Bioorg Med Chem, 2010).
Active and inactive are the calls of the source. No cut-off for these calls is given here.

Columns and labels:
HUVEC = assay: Cytotoxicity against HUVEC after 2 days by MTT assay; type: cell-based; settings: Homo sapiens, 48 h
[1] = Growth inhibition of human CNS cancer cell by NCI-CLS assay; type: functional; settings: Cancer cell lines; for CC50: read-out: LC50 (the source's name)
[2] = Growth inhibition of human melanoma cell by NCI-CLS assay; type: functional; settings: for CC50: read-out: LC50 (the source's name)
HEL = assay: Antiproliferative activity against human HEL cells after 2 days by MTT assay; type: functional, cell-based; settings: 48 h
[3] = Growth inhibition of human colon cancer cell by NCI-CLS assay; type: functional; settings: Cancer cell lines
[4] = Antiproliferative activity against human B1647 cells after 2 days by MTT assay; type: functional, cell-based; settings: B1647, 48 h
NSCLC = assay: Growth inhibition of human NSCLC cell by NCI-CLS assay; type: functional
[5] = Antiproliferative activity against human M07e cells after 2 days by MTT assay; type: functional, cell-based; settings: M-07e, 48 h
[6] = Growth inhibition of human breast cancer cell by NCI-CLS assay; type: functional; settings: Cancer cell lines; for CC50: read-out: LC50 (the source's name)
[7] = target: NAD(P)H dehydrogenase [quinone] 1 (Homo sapiens) (UniProt P15559); assay: Induction of NQO1 activity in HUVEC at 5 uM after 24 to 48 hrs by fluorescence plate reader
Chain of NAD(P)H dehydrogenase [quinone] 1 (Homo sapiens) (P15559 whole entry): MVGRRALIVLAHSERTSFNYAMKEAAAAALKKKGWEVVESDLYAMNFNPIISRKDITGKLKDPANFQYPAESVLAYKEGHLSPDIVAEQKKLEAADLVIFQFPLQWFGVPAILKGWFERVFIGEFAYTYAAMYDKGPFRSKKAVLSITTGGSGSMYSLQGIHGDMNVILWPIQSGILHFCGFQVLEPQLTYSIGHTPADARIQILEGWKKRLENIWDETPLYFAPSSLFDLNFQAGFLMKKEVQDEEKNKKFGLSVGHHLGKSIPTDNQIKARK

[8] = Growth inhibition of human ovarian cancer cell by NCI-CLS assay; type: functional; settings: Cancer cell lines; for CC50: read-out: LC50 (the source's name)
[9] = Growth inhibition of human renal cancer cell by NCI-CLS assay; type: functional; settings: Cancer cell lines; for CC50: read-out: LC50 (the source's name)
[10] = Growth inhibition of human leukemia cell by NCI-CLS assay; type: functional
[11] = Growth inhibition of human prostate cancer cell by NCI-CLS assay; type: functional; settings: Cancer cell lines; for CC50: read-out: LC50 (the source's name)
[12] = Acute toxicity in athymic nude Swiss mouse administered as single dose; type: organism-based; settings: in vivo

Row | Structure (SMILES) | IC50 (HUVEC) [µM] | GI50 [1] [µM] | TGI [1] [µM] | GI50 [2] [µM] | TGI [2] [µM] | GI50 [3] [µM] | TGI [3] [µM] | GI50 (NSCLC) [µM] | TGI (NSCLC) [µM] | GI50 [6] [µM] | TGI [6] [µM] | Activity [7] | GI50 [8] [µM] | TGI [8] [µM] | GI50 [9] [µM] | TGI [9] [µM] | GI50 [10] [µM] | TGI [10] [µM] | GI50 [11] [µM] | TGI [11] [µM] | also measured
1 | O=C1Nc2cc(OC(F)(F)F)ccc2/C1=C\c1cccc(/C=C2/C(=O)Nc3cc(OC(F)(F)F)ccc32)n1 | < 5 | 0.3 | 0.8 | 0.4 | 1.1 | 0.2 | 0.5 | 0.4 | 1.9 | 0.3 | 2 | Active | 0.4 | 2.5 | 0.3 | 0.7 | 0.2 | 8.9 | 0.1 | 0.3 | CC50 [1]: 2.6 µM; CC50 [2]: 5.7 µM; IC50 (HEL): 3 µM; LC50 [3]: 2 µM; IC50 [4]: 3 µM; LC50 (NSCLC): 15.5 µM; IC50 [5]: 3 µM; CC50 [6]: 15.8 µM; CC50 [8]: 12.3 µM; CC50 [9]: 2.9 µM; CC50 [11]: 3.2 µM
2 | COc1cc2c(c(OC)c1OC)/C(=C\c1cccc(/C=C3/C(=O)Nc4cc(OC)c(OC)c(OC)c43)n1)C(=O)N2 | < 5 | 0.3 | 0.8 | 0.2 | 0.5 | 0.2 | 0.5 | 0.3 | 1.5 | 0.2 | 1.5 | Active | 0.3 | 0.8 | 0.3 | 0.7 | 0.2 | 2.8 | 0.3 | 1 | MTD [12]: 100 mg/kg; CC50 [1]: 3.2 µM; CC50 [2]: 2.7 µM; IC50 (HEL): 1 µM; LC50 [3]: 7.2 µM; IC50 [4]: 1 µM; LC50 (NSCLC): 33.1 µM; IC50 [5]: 1 µM; CC50 [6]: 24.6 µM; CC50 [8]: 5.7 µM; CC50 [9]: 4.5 µM; LC50 [10]: 67.6 µM; CC50 [11]: 16.6 µM
3 | C[S+]([O-])CCCCN=C=S (stereo not drawn) |  |  |  |  |  |  |  |  |  |  |  | Active |  |  |  |  |  |  |  |  | 
4 | O=C1Nc2cccc(F)c2C1=Cc1cccc(C=C2C(=O)Nc3cccc(F)c32)n1 |  | 1.1 | 5.7 | 0.9 | 2.8 | 0.7 | 3.3 | 2 | 10.2 | 0.8 | 10 |  | 1.6 | 8.5 | 1.1 | 3.8 | 0.8 | 9.8 | 1.4 | 12.9 | 
